Measured values taken from PubChem BioAssay (NCI).
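Test compounds were applied to cells in 96-well plates for 48 hours at 5 doses. The concentration for 50% growth inhibition is given as GI50. The concentration for full growth arrest is given as TGI.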

Key:
Assay in all cases: NCI tumour cell line growth inhibition, 48 h
SF-295 CNS = test system: SF-295 CNS
A549 NSCLC = test system: A549 NSCLC
UACC-62 melanoma = test system: UACC-62 melanoma
HT29 colon = test system: HT29 colon
SW-620 colon = test system: SW-620 colon
NCI-H226 lung = test system: NCI-H226 lung
HCT-15 colon = test system: HCT-15 colon
HL-60(TB) leukemia = test system: HL-60(TB) leukemia
RXF 393 renal = test system: RXF 393 renal
SNB-75 CNS = test system: SNB-75 CNS

Row | SMILES | TGI (SF-295 CNS) | TGI (A549 NSCLC) | TGI (UACC-62 melanoma) | TGI (HT29 colon) | TGI (SW-620 colon) | TGI (NCI-H226 lung) | TGI (HCT-15 colon) | TGI (HL-60(TB) leukemia) | GI50 (SF-295 CNS) | GI50 (A549 NSCLC) | GI50 (RXF 393 renal) | TGI (RXF 393 renal) | GI50 (HT29 colon) | GI50 (SW-620 colon) | GI50 (NCI-H226 lung) | GI50 (HCT-15 colon) | GI50 (HL-60(TB) leukemia) | GI50 (SNB-75 CNS) | TGI (SNB-75 CNS) | GI50 (UACC-62 melanoma)
1 | Cc1[nH]c2ccccc2c1-c1cc(-c2cc(-c3c(C)[nH]c4ccccc34)nc(N)n2)nc(N)n1 | > 100 µM | > 100 µM | > 100 µM | > 100 µM | > 100 µM | > 100 µM | > 100 µM | > 100 µM | – | – | – | – | – | – | – | – | – | – | – | –
2 | Cc1cc(Nc2c3ccccc3nc3ccccc23)ccc1NS(C)(=O)=O | 23.4 µM | 12 µM | – | 12.8 µM | 15.9 µM | 22 µM | 20.5 µM | 12.1 µM | 4.26 µM | 2.85 µM | 3.46 µM | 16 µM | 3.38 µM | 3.36 µM | 4.41 µM | 4.12 µM | 3.67 µM | 5.11 µM | 19.9 µM | –
3 | CN(CCc1ccccn1)c1nc(=[N+](C)C)ss1 | > 100 µM | > 100 µM | > 100 µM | > 100 µM | > 100 µM | – | > 100 µM | > 100 µM | – | – | – | > 100 µM | – | – | – | – | – | – | > 100 µM | –
4 | O=C(/C=C/C=C/c1c(C2CC2)nc2ccccc2c1-c1ccc(F)cc1)c1cccs1 | 5.97 µM | > 100 µM | 6.64 µM | 5.47 µM | 11.8 µM | 3.49 µM | 3.92 µM | 5.48 µM | 1.95 µM | 3.72 µM | – | – | 1.49 µM | 1.67 µM | 1.5 µM | 1.06 µM | 1.58 µM | > 100 µM | > 100 µM | 1.46 µM
5 | COc1ccc(N/N=C(\CCN(C)C)c2ccccc2)cc1 | 1.65 µM | – | 6.23 µM | 23.6 µM | 10.9 µM | – | 4.57 µM | 12.9 µM | – | – | – | 29.7 µM | – | – | – | – | – | – | 53 µM | –
